Where “and” joins values, the source holds several entries; their conditions need not be identical. Equal entries are not always repeated. Where two headings read alike, the source gives them in different places. Starred links: 1 amine or outer side, 2 acyl side, 3 side chain; linkers in the order of their positions; H or OH if unused. Non-standard residues stand in square brackets, D forms with d. Residues, ends and D or L forms follow the SMILES beside them. No end group written: not given here. *: point of attachment. RhodamineB = CCN(CC)c1ccc2c(-c3ccccc3C(=O)*)c3ccc(=[N+](CC)CC)cc-3oc2c1; Trimesoyl = O=C(c1cc(C(=O)[*:2])cc(C(=O)[*:3])c1)[*:1]; 2Nal = N[C@@H](Cc1ccc2ccccc2c1)C(=O)O; Dap = NC[C@H](N)C(=O)O
What was measured:
[1] = pKa of CAP fluorophore; format: physicochemical; conditions: deprotonated state fluorescent
[2] = test system: NIH 3T3 cells; assay: Anti-pY western blot of global pY protein levels; format: cell-based; conditions: 0-500 nM, 2 h
Procedure: NIH 3T3 cells were cultured in full growth media to reach 80% confluence. The cells were starved in serum free media for 3 h and treated with different concentrations of cFΦR4-PTP1B or untagged PTP1B for 2 h, followed by 30 min incubation in media supplemented with 1 mM sodium pervanadate. The solutions were removed and the cells were washed with cold DPBS twice. The cells were detached and lysed in 50 mM Tris-HCl, pH 7.4, 150 mM NaCl, 1% NP-40, 10 mM sodium pyrophosphate, 5 mM iodoacetic acid, 10 mM NaF, 1 mM EDTA, 2 mM sodium pervanadate, 0.1 mg/mL phenylmethanesulfonyl fluoride, 1 mM benzamidine, and 0.1 mg/mL trypsin inhibitor. After 30 min incubation on ice, the cell lysate was centrifuged at 15,000 rpm for 25 min in a microcentrifuge. The total cellular proteins were separated by SDS-PAGE and transferred electrophoretically to PVDF membrane, which was immunoblotted using anti-pY antibody 4G10.
NIH 3T3 cells were incubated for 2 h in the presence of untagged PTP1B or cFΦR4-PTP1B and their global pY protein levels were analyzed by anti-pY western blotting (FIG. 12A). […] Several proteins in the 150-200 kD range were completely dephosphorylated upon the addition of 62 nM cFΦR4-PTP1B, whereas proteins of ˜80 kD remained phosphorylated at 500 nM cFΦR4-PTP1B.

[3] = test system: HEK293 cells; assay: FACS uptake of rhodamine-labeled bicyclic vs monocyclic peptide; format: cell-based, human
Source text: In recent years, there has been much interest in cyclic peptides as therapeutic agents and biomedical research tools (Driggers, E M et al. Nat. Rev. Drug Discov., 2008, 7, 608-624; Marsault, E and Peterson, M L. J. Med. Chem., 2011, 54, 1961-2004). For example, cyclic peptides are effective for inhibition of protein-protein interactions (Lian, W et al. J. Am. Chem. Soc., 2013, 135, 11990-11995; Liu, T et al. ACS Comb. Sci., 2011, 13, 537-546; Dewan, V et al. ACS Chem. Biol., 2012, 7, 761-769; Wu, X et al. Med. Chem. Commun., 2013, 4, 378-382), which are challenging targets for conventional small molecules. A major obstacle in developing cyclic peptide therapeutics is that they are generally impermeable to the cell membrane (Kwon, Y U and Kodadek, T. Chem. Biol., 2007, 14, 671-677; Rezai, T et al. J. Am. Chem. Soc., 2006, 128, 2510-2511; Chatterjee, J et al. Acc. Chem. Res., 2008, 41, 1331-1342). […] The bicyclic peptides were readily synthesized by forming three amide bonds between a trimesoyl scaffold and three amino groups on the corresponding linear peptide (i.e., the N-terminal amine, the side chain of a C-terminal diaminopropionic acid (Dap), and the side chain of a lysine (or ornithine, Dap) imbedded in between the CPP and target-binding motifs) (Lian, W et al. J. Am. Chem. Soc., 2013, 135, 11990-11995). […]

[4] = test system: HeLa cells; assay: FACS uptake of FITC-labeled peptides; format: cell-based, human; conditions: 5 μM, 2 h
[5] = test system: α-chymotrypsin and trypsin; assay: Peptide proteolysis stability assay; format: in vitro ADME; conditions: 37° C.
Procedure: The stability tests were carried out by slightly modifying a previously reported procedure (Frackenpohl, J et al. Chembiochem 2001, 2, 445). 24 μL of 1.5 mM peptide solution was incubated at 37° C. with 30 μL 50 μM of α-chymotrypsin and 30 μL 50 μM of trypsin in 200 μL of working buffer (50 mM Tris-HCl, pH 8.0, NaCl (100 mM), CaCl2 (10 mM)). At various time points (0-12 h), 40 μL aliquots were withdrawn and mixed with 40 μL of 15% trichloroacetic acid and incubated at 4° C. overnight. The final mixture was centrifuged at 15,000 rpm for 10 min in a microcentrifuge, and the supernatant was analyzed by reversed-phase HPLC equipped with a C18 column (Waters). The amount of remaining peptide (%) was determined by integrating the area underneath the peptide peak (monitored at 214 nm) and compared with that of control reaction (no proteases).

[6] = test system: HeLa cells; assay: Live-cell confocal microscopy of FITC-labeled peptides; format: cell-based, human; conditions: 5 μM
Procedure: To detect peptide internalization, 1 mL of HeLa cell suspension (5×10^4 cells) was seeded in a 35 mm glass-bottomed microwell dish (MatTek) and cultured overnight. Cells were gently washed with DPBS twice and treated with FITC labeled peptides (5 μM) and dextran^Rho (0.5 mg mL^−1) in phenol-red free DMEM containing 1% serum at 37° C. for 1 h in the presence of 5% CO2. After removal of the medium, the cells were gently washed with DPBS twice and incubated with 5 μM DRAQS in DPBS for 10 min. The cells were again washed with DPBS twice and imaged on a Visitech Infinity 3 Hawk 2D-array live cell imaging confocal microscope. Images were captured under the same parameters and adjusted under the same setting using MetaMorph (Molecular Devices).

[7] = Aqueous solubility; format: physicochemical
[8] = test system: mammalian cells; conditions: Qian et al. 2013; cited from earlier work
[9] = test system: SUV2 (vesicles that mimic the negatively charged endosomal membrane of mammalian cells); assay: Fluorescence polarization membrane binding, SUV2
Source text: (§1) Also discussed herein are the CPP sequences in Table 16. All uptake/delivery efficiencies are in Table 17 are relative to that of cFΦR4 (290-1F, 100%). SUV1 are small unilamellar vesicles that mimic the neutral outer membrane of mammalian cells [45% phosphatidylcholine (PC), 20% phosphatidylethanolamine (PE), 20% sphingomyelin (SM), and 15% cholesterol (CHO)]. SUV2 are small unilamellar vesicles that mimic the negatively charged endosomal membrane of mammalian cells [50% PC, 20% PE, 10% phosphatidylinositol (PI), and 20% bis(monoacylglycerol)phosphate].
(§2) Measurements were carried out fluorescence polarization using FITC-labeled cyclic peptides against increasing concentrations of vesicles. Experiments were performed at pH 7.4 and 5.5 (pH inside late endosomes).

[10] = test system: HeLa cells; assay: Effect on endocytosis of dextran^Alexa488, flow cytometry; format: cell-based, human; conditions: 1 μM cFΦR4, 100 μM dextran^Alexa488, 30 min
Procedure: HeLa cells were treated with clear DMEM containing no supplement, 1 μM cFΦR4 only, 100 μM dextran^Alexa488 only, or both 1 μM cFΦR4 and 100 μM dextran^Alexa488. MFI, mean fluorescence intensity.
Following adherence, cells were treated with clear DMEM containing no supplement, 1 μM cFΦR4 peptide, 100 μM dextran^Alexa488 (Life Technologies, D-22910), or both 1 μM cyclic peptide and 100 μM dextran^Alexa488 for 30 min under standard cell culture conditions. The cells were washed with DPBS twice, removed from the plate with 0.25% trypsin, diluted into clear DMEM containing 10% FBS, pelleted at 300 g for 5 min, washed once with DPBS and resuspended in 200 μL of DPBS. Whole-cell dextran uptake was analyzed on a BD Accuri C6 flow cytometer using the manufacturer FL1 laser and filter set.

[11] = test system: HeLa cells; assay: Cytoplasmic delivery of pCAP-containing peptides, flow cytometry; conditions: pCAP-containing peptide as cargo
[12] = test system: HEK293, MCF-7, A549, H1650, and H1299; assay: MTT cytotoxicity assay; format: cell-based, human
Procedure: MTT assays were performed to evaluate cyclic peptide's cytotoxicity against several mammalian cell lines (Mosmann, T. J. Immunol. Methods, 1983, 65, 55-63). One hundred μL of MCF-7, HEK293, H1299, H1650, A549 (1×10^5 cells/mL) cells were placed in each well of a 96-well culture plate and allowed to grow overnight. Varying concentrations of the peptide (5 or 50 μM) were added to the each well and the cells were incubated at 37° C. with 5% CO2 for 24 to 72 h. Ten μL of MTT stock solution was added into each well. Addition of 10 μL of the solution to the growth medium (no cell) was used as a negative control. The plate was incubated at 37° C. for 4 h. Then 100 μL of SDS-HCl solubilizing buffer was added into each well, and the resulting solution was mixed thoroughly. The plate was incubated at 37° C. for another 4 h. The absorbance of the formazan product was measured at 570 nm using a Molecular Devices Spectramax M5 plate reader. Each experiment was performed in triplicates and the cells without any peptide added were treated as control.

[13] = test system: SUV1 (vesicles that mimic the neutral outer membrane of mammalian cells); assay: Fluorescence polarization membrane binding, SUV1
Source text: as §1, §2

[14] = test system: cell type (e.g., HeLa cells); assay: Cellular uptake efficiency of cyclic CPPs; format: cell-based; conditions: relative to cFΦR4 (290-1F, 100%)
Procedure: In particular embodiments, uptake efficiency is determined by comparing (i) the amount of a cyclic cell-penetrating peptide of the invention internalized by a cell type (e.g., HeLa cells) to (ii) the amount of c(FΦRRRRQ) (290-1F) internalized by the same cell type. To measure cellular uptake efficiency, the cell type may be incubated in the presence of a cell-penetrating peptide of the invention for a specified period of time (e.g., 30 minutes, 1 hour, 2 hours, etc.) after which the amount of the cell-penetrating peptide internalized by the cell is quantified. Separately, the same concentration of c(FΦRRRRQ) (290-1F) is incubated in the presence of the cell type over the same period of time, and the amount of the second peptide internalized by the cell is quantified. Quantification can be achieved by fluorescently labeling the cell-penetrating peptide (e.g., with a FTIC dye) and measuring the fluorescence intensity using techniques well-known in the art.
as §1

NC(Cc1cc(=O)oc2cc(O)ccc12)C(=O)O (centres unmarked) [CAP, coumaryl aminopropionic acid]
pKa [1]: 7.8

cFΦR4-PTP1B: cFΦR4 conjugated to ybbR-tagged PTP1B catalytic domain via a thioether bond
Global pY protein levels [2]: concentration-dependent decrease in pY levels

[Tm(AAAAA)K(RRRRΦF)J]-K(Rho) (Trimesoyl-AAAAAKRRRR[2Nal]F[Dap]K(RhodamineB); linker (positions not given here) via Trimesoyl; not fully specified (C-terminus, bridges); printed as [Tm(AAAAA)K(RRRRΦF)J]-K(Rho)) [bicyclo(FΦR4-A5)^Rho]
Uptake more efficient than corresponding monocyclic peptide (compound 17) [3]: ~3 fold

CH3CH2CH2CO-FΦRRRRUK(FITC)-NH2 [Peptide 2 (Example 2)]
Mean fluorescence intensity (MFI), total intracellular FITC fluorescence [4]: 5530 arbitrary units (AU)
Half-life with protease cocktail [5]: ~20 min
Intracellular FITC fluorescence (confocal) [6]: much weaker intracellular fluorescence

cyclo(FΦRRRRQ)-FFFF-K(Rho) (cyclo(F[2Nal]RRRRQFFFFK(RhodamineB)); not fully specified (C-terminus, bridges); printed as cyclo(FΦRRRRQ)-FFFF-K(Rho)) [cFΦR4-F4]
Aqueous solubility [7]: poor

N=C(N)NCCC[C@@H]1NC(=O)[C@H](CCCNC(=N)N)NC(=O)[C@H](CCCNC(=N)N)NC(=O)[C@H](Cc2ccc3ccccc3c2)NC(=O)[C@H](Cc2ccccc2)NC(=O)[C@H](CCC(N)=O)NC(=O)[C@H](CCCNC(=N)N)NC1=O [cFΦR4, cyclo(FΦRRRRQ)] (cyclo(F[2Nal]RRRRQ))
Efficiency of entering cytoplasm and nucleus higher than nonaarginine (R9) [8]: 2-5 fold
Kd ([9]; pH 5.5, read-out: Membrane Binding KD (mM) SUV2 pH 5.5): 0.63 mM
Kd ([9]; pH 7.4, read-out: Membrane Binding KD (mM) SUV2 pH 7.4): 0.66 mM
Increase in internalization of dextran^Alexa488 [10]: 15%
Delivery efficiency higher than R9, Antp, and Tat [11]: 4-12 fold and 3.7-12 fold
Growth inhibition after 72 h ([12]; 50 μM): up to 20%
Growth inhibition after 24 or 48 h ([12]; up to 50 μM): no significant growth inhibition
Kd ([13]; pH 5.5, read-out: Membrane Binding KD (mM) SUV1 pH 5.5): 1.1 mM
Kd ([13]; pH 7.4, read-out: Membrane Binding KD (mM) SUV1 pH 7.4): 4 mM
Uptake Efficiency (%) [14]: 100%
